Results: patent publication EP1202992B1, “ASCIDIDEMIN DERIVATIVES AND THEIR THERAPEUTIC APPLICATIONS” (CEPHALON FRANCE, priority 1999, dated 2001)
Where two headings read alike, the source gives them in different places.

Columns and labels:
[1] = system: 12 lignées tumorales humaines; test: MTT colorimetric cytotoxicity test, all 12 tumour cell lines together; type: cell-based; details: mean calculated from the cytotoxic activity on the 12 tumour cell lines; read-out: Cl 50 (the source's name)
Text: (§1) L'influence des composés de formules I et la sur les cellules néoplasiques a été évaluée à l'aide du test colorimétrique MTT. Le principe du test MTT est basé sur la réduction mitochondriale par les cellules vivantes métaboliquement actives du produit MTT (3-(4,5-diméthylthiazol-2-yl)-2,5 diphényltétrazolium bromide) de couleur jaune en un produit de couleur bleue, le formazan. La quantité de formazan ainsi obtenue est directement proportionnelle à la quantité de cellules vivantes présentes dans le (ou les) puit(s) de culture. Cette quantité de formazan est mesurée par spectrophotométrie.
(§2) Les lignées cellulaires sont maintenues en culture monocouche à 37°C dans des boîtes de culture à bouchon fermé contenant du milieu de base MEM 25 MM HEPES (Minimum Essential Medium). Ce milieu, adapté à la croissance d'une gamme de cellules variées diploïdes ou primaires de mammifères, est ensuite additionné : • d'une quantité de 5% de SVF (Sérum de Veau Foetal) décomplémenté à 56°C pendant 1 heure, • de 0,6 mg/ml de L-glutamine, • de 200 IU/ml de pénicilline, • de […] de streptomycine, • de 0,1 mg/ml de gentamicine.
Les 12 lignées cellulaires cancéreuses humaines utilisées ont été obtenues auprès de l'American Type Culture Collection (ATCC, Rockville, MD, USA). Ces 12 lignées cellulaires sont : • U-373MG (code ATCC : HTB-17) et U-87MG (code ATCC : HTB-14) qui sont deux glioblastomes, • SW1088 (code ATCC : HTB-12) qui est un astrocytome, • A549 (code ATCC : CCL-185) et A-427 (code ATCC : HTB-53) qui sont deux cancers du poumon non-à-petites-cellules, • HCT-15 (code ATCC : CCL-225) et LoVo (code ATCC : CCL-229) qui sont deux cancers colorectaux, • T-47D (code ATCC : HTB-133) et MCF7 (code ATCC : HTB-22) qui sont deux cancers du sein, • J82 (code ATCC : HTB-1) et T24 (code ATCC : HTB-4) qui sont deux cancers de la vessie, • PC-3 (code ATCC : CRL-1435) qui est un cancer de la prostate.
Au plan expérimental : 100 µl d'une suspension cellulaire contenant 20 000 à 50 000 (selon le type cellulaire utilisé) cellules/ml de milieu de culture sont ensemencés en plaques multi-puits de 96 puits à fond plat et sont mis à incuber à 37°C, sous atmosphère comprenant 5% de CO2 et 70% d'humidité. Au bout de 24 heures d'incubation, le milieu de culture est remplacé par 100 µl de milieu frais contenant soit les différents composés à tester à des concentrations variant de 10^-5 à 10^-10 M soit le solvant ayant servi à la mise en solution des produits à tester (condition contrôle). Après 72 heures d'incubation dans les conditions précédentes, le milieu de culture est remplacé par 100 µl d'une solution jaunâtre de MTT dissous à raison de 1 mg/ml dans du RPMI 1640. Les microplaques sont remises à incuber pendant 3 heures à 37°C puis centrifugées pendant 10 minutes à 400 g. La solution jaunâtre de MTT est éliminée et les cristaux de formazan bleu formés au niveau cellulaire sont dissous dans 100 µl de DMSO. Les microplaques sont ensuite mises sous agitation pendant 5 minutes. L'intensité de la coloration bleue résultant donc de la transformation du produit MTT jaune en formazan bleu par les cellules encore vivantes au terme de l'expérience est quantifiée par spectrophotométrie à l'aide d'un appareil de type DYNATECH IMMUNOASSAY SYSTEM aux longueurs d'onde de 570 nm et 630 nm correspondant respectivement aux longueurs d'ondes d'absorbance maximale du formazan et au bruit de fond. Un logiciel intégré au spectrophotomètre calcule les valeurs moyennes de densité optique ainsi que les valeurs de déviation standard (Dév. Std.) et d'erreur standard sur la moyenne (ESM).
L'activité inhibitrice de la croissance cellulaire des composés de formules I et la sur les différentes lignées cellulaires tumorales a été comparée à celle du produit naturel, l'ascididémine (CRL 8274). […]

[2] = system: souris B6D2F1/Jico; test: Determination of the maximum tolerated dose (DMT); type: in vivo; details: B6D2F1/Jico mice, single intraperitoneal administration, doses 2,5 to 160 mg/kg, survival over 14 days
Experimental: L'évaluation de la dose maximale tolérée a été réalisée chez des souris B6D2F1/Jico âgées de 4 à 6 semaines. Les composés ont été administrés par voie intrapéritonéale à des doses croissantes s'échelonnant de 2,5 à 160 mg/kg. La valeur de la DMT (exprimée en mg/kg) est déterminée à partir de l'observation du taux de survie des animaux sur une période de 14 jours après une administration unique du produit considéré. L'évolution pondérale des animaux est également suivie pendant cette période. Lorsque la valeur de la DMT est supérieure à 160 mg/kg, la valeur de la DMT est assimilée à 160 mg/kg par défaut.

[3] = system: modèle cellulaire de leucémie; details: leukaemia cell model, literature value; cited from earlier work
[4] = system: LoVo; test: MTT colorimetric cytotoxicity test, LoVo; type: cell-based, humaines; details: Homo sapiens, 72 h incubation, read-out: Concentrations inhibitrices (M) encadrant la valeur de la concentration inhibitrice 50 %
Text: as §1, §2
(§3) Les 12 lignées cellulaires cancéreuses humaines utilisées ont été obtenues auprès de l'American Type Culture Collection (ATCC, Rockville, MD, USA). […]

[5] = system: SW1088; test: MTT colorimetric cytotoxicity test, SW1088; type: cell-based, humaines; details: SW1088, 72 h incubation, read-out: Concentrations inhibitrices (M) encadrant la valeur de la concentration inhibitrice 50 %
Text: as §1, §2, §3
Au plan expérimental : 100 µl d'une suspension cellulaire contenant 20 000 à 50 000 (selon le type cellulaire utilisé) cellules/ml de milieu de culture sont ensemencés en plaques multi-puits de 96 puits à fond plat et sont mis à incuber à 37°C, sous atmosphère comprenant 5% de CO2 et 70% d'humidité. […] L'intensité de la coloration bleue résultant donc de la transformation du produit MTT jaune en formazan bleu par les cellules encore vivantes au terme de l'expérience est quantifiée par spectrophotométrie à l'aide d'un appareil de type DYNATECH IMMUNOASSAY SYSTEM aux longueurs d'onde de 570 nm et 630 nm correspondant respectivement aux longueurs d'ondes d'absorbance maximale du formazan et au bruit de fond. […]

[6] = system: J82; test: MTT colorimetric cytotoxicity test, J82; type: cell-based, humaines; details: J82, 72 h incubation, read-out: Concentrations inhibitrices (M) encadrant la valeur de la concentration inhibitrice 50 %
Text: as §1, §2, §3

[7] = system: PC-3; test: MTT colorimetric cytotoxicity test, PC-3; type: cell-based, humaines; details: Homo sapiens, PC-3, 72 h incubation, read-out: Concentrations inhibitrices (M) encadrant la valeur de la concentration inhibitrice 50 %
Text: as §1, §2, §3

[8] = system: T24; test: MTT colorimetric cytotoxicity test, T24; type: cell-based, humaines; details: read-out: Concentrations inhibitrices (M) encadrant la valeur de la concentration inhibitrice 50 %
Text: as §1, §2, §3

[9] = system: U-373MG; test: MTT colorimetric cytotoxicity test, U-373MG; type: cell-based, humaines; details: 72 h incubation, read-out: Concentrations inhibitrices (M) encadrant la valeur de la concentration inhibitrice 50 %
Text: as §1, §2, §3

Molecule	IC50 [1] [nM]	DMT [2] [mg/kg]	other results
O=C1c2cccnc2-c2nccc3c2c1nc1ccc(NCc2ccccc2)cc13 [CRL 8241, 5-(benzylamino)-9H-quino[4,3,2-de][1,10] phénanthrolin-9-one]	140	>160	–
COc1ccnc2c1C(=O)c1nc3ccc(Br)cc3c3ccnc-2c13 [CRL 8389, 5-bromo-10-méthoxy-9H-quino[4,3,2-de][1,10]phénanthrolin-9-one]	420	>160	–
O=C1c2cccnc2-c2nccc3c2c1nc1ccc(NCc2ccccc2)cc13 [CRL 8416, Chlorhydratede la 5-(benzylamino)-9H-quino[4,3,2-de][1,10] phénanthrolin-9-one]	80	>160	–
Nc1ccnc2c1-c1nc3ccccc3c3ccnc(c13)C2=O [CRL 8347, 5-amino-9H-quino[4,3,2-de][1,10]phénanthtolin-9-one]	21	>160	–
CN(C)c1ccc2nc3c4c(nccc4c2c1)-c1ncccc1C3=O [CRL 8407, Chlorhydratede la 5-(diméthylamino)-9H-quino[4,3,2-de][1,10] phénanthrolin-9-one]	22	>160	–
COc1ccc2nc3c4c(nccc4c2c1)-c1ncccc1C3=O [CRL 8297, 5-méthoxy-9H-quino[4,3,2-de][1,10]phénanthrolin-9-one]	90	>160	–
2-bromoleptoclinidone [CRL 8269, reference compound]	120	40	DE 50 [3]: 0.4 µg/mL
5-chloro-9H-quino [4,3,2-de] [1,10] phénantrolin-9-one [CRL 8301]	270	>160	–
O=C1c2nccc(Br)c2-c2nc3ccccc3c3ccnc1c23 [CRL 8248, 5-bromo-9H-quino[4,3,2-de] [1,10]phénantrolin-9-one]	80	>160	–
5-(diméthylamino-2-éthyl)amino-9H-quino[4,3,2de][1,10] phénanthrolin-9-one [CRL 8419]	60	40	–
CC(=O)c1cc(C)ccc1NC1=CC(=O)c2ncccc2C1=O [CRL8322, 6-(2-acétyl-4-méthyl-phénylamino)-quinoline-5,8-dione]	–	–	IC50 [4]: > 1e-05 M; IC50 ([5]; Homo sapiens): > 1e-05 M; IC50 ([6]; Homo sapiens): > 1e-05 M; IC50 [7]: > 1e-05 M; IC50 ([8]; Homo sapiens, T-24, T24, 72 h incubation): > 1e-05 M
Cc1ccc2nc3c4c(nccc4c2c1)-c1ncccc1C3=O [CRL 8323, 5-méthyl-9H-quino [4,3,2-de][1,10] phénanthrolin-9-one]	60	20	–
5-(2-chloroéthyl)amino-9H-quino[4,3,2de][1,10] phénanthrolin-9-one [CRL 8423]	7	>160	–
Cc1ccc2nc3c(c(C)c2c1)C(=O)c1ncccc1C3=O [CRL8324, 9,11-diméthyl-1,6-diaza-naphtacène-5,12-dione]	–	–	IC50 [9]: > 1e-05 M; IC50 [5]: > 1e-05 M; IC50 [6]: > 1e-05 M; IC50 ([8]; T24, 72 h incubation): > 1e-05 M
5-bis(2-chloroéthyl)amino-9H-quino[4,3,2de][1,10] phénanthrolin-9-one [CRL 8422]	100	>160	–
CC(=O)c1ccc(Br)cc1NC1=CC(=O)c2ncccc2C1=O [CRL8268, 6-(2-acétyl-5-bromo-phénylamino)-quinoline-5,8 dione]	–	–	IC50 ([5]; Homo sapiens): > 1e-05 M
Chlorhydrate de la 5-amino-9H-quino[4,3,2-de][1,10]phénanthrolin-9-one [CRL 8406]	60	>160	–
9-H-quino[4,3,2-de][1,10]phénanthrolin-9-one [CRL 8274, reference compound]	100	20	–
CN(C)c1ccc2nc3c4c(nccc4c2c1)-c1ncccc1C3=O [CRL 8325, 5-(diméthylamino)-9H-quino[4,3,2-de][1,10]phénanthrolin-9-one]	37	>160	–
Chlorhydrate de la 5-(diméthylamino-2-éthyl)amino-9H-quino[4,3,2de][1,10] phénanthrolin-9-one [CRL 8418]	110	40	–
